Laboratory results taken from PMC4770093, “The role of kinetic context in apparent biased agonism at GPCRs” (Nature Communications, 2016).
“And” between values parts separate entries of the source, which are not always exact repeats. Equal values may be shown once. Read-outs that look alike come from different tables or passages of the source.

Legend:
D2LR [1] = target: T1, D2LR (Homo sapiens, UniProt P14416); assay: Gαi1 G protein activation (BRET); assay type: cell-based; set-up: expressed in transfected cells
D2R = assay: Simulation of receptor occupancy over time from kon and koff; settings: simulation with a KD concentration of each agonist
Method in brief: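 Receptor occupancy over time was simulated from kon and koff for each agonist at a concentration equal to its KD. The kinetic constants came from a Tag-lite competition kinetic binding assay on SNAP-tagged D2R with fluorescent agonist PPHT as tracer, given as mean±s.e.m. of three experiments.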

[2] = target: SNAP-tagged human dopamine D2L (Homo sapiens, UniProt P14416); assay: Tag-lite PPHT-red competition kinetic binding (HTRF); settings: PPHT-red tracer, Tag-lite
D2LR [3] = target: T1, D2LR; assay: Inhibition of forskolin-induced cAMP production (BRET CAMYEL biosensor); settings: for EC50: pEC50 cAMP; for Emax: relative to the maximal response of ropinirole; for Inhibition of cAMP production measured using a CAMYEL BRET biosensor, Net BRET: single experiments n = 1, 2, 3

T1 sequence (P14416 whole entry): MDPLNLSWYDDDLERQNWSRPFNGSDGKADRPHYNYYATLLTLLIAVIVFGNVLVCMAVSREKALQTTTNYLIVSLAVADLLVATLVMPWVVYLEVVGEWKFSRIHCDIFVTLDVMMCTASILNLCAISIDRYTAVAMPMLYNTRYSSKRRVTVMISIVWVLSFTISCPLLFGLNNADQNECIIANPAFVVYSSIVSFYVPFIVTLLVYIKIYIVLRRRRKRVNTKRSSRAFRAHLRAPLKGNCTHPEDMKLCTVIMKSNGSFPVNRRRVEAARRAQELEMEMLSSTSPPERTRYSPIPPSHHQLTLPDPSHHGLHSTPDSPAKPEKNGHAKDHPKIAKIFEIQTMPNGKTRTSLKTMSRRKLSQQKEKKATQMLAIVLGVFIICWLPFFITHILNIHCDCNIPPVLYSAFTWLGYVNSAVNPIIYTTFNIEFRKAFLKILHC
Sequence of SNAP-tagged human dopamine D2L (P14416 whole entry): as above

CCCN(CCC)CCc1cccc2c1CC(=O)N2 [Ropinirole, ropinirole]
Log(τ/KA) Gαi1 activation (D2LR [1]): 6.75 ± 0.09
ΔLog(τ/KA) Gαi1 activation (D2LR [1]): -0.43 ± 0.13
time to maximal receptor occupancy (D2R): ≤ 1 min
koff ([2]; 100 μM GppNHp, 37 °C, read-out: koff (converted)): 0.0433 s⁻¹
Kd ([2]; read-out: pKd (affinity determined from kinetic parameters) (converted)): 1860 nM
Log(τ/KA) cAMP (D2LR [3]): 7.67 ± 0.04
ΔLog(τ/KA) cAMP (D2LR [3]): -0.39 ± 0.06
EC50 (D2LR [3]; 2 min): 9.55 nM
EC50 (D2LR [3]; 5 min): 22.4 nM
EC50 (D2LR [3]; 10 min): 41.7 nM
EC50 (D2LR [3]; 15 min): 42.7 nM
EC50 (D2LR [3]; 30 min): 34.7 nM
EC50 (D2LR [3]; 45 min): 97.7 nM
EC50 (D2LR [3]; 60 min): 186 nM
EC50 (D2LR [3]; 75 min): 107 nM
EC50 (D2LR [3]; 90 min): 174 nM
Emax (D2LR [3]; read-out: Emax cAMP, 2 min): 100%
Emax (D2LR [3]; read-out: Emax cAMP, 5 min): 100%
Emax (D2LR [3]; read-out: Emax cAMP, 10 min): 100%
Emax (D2LR [3]; read-out: Emax cAMP, 15 min): 100%
Emax (D2LR [3]; read-out: Emax cAMP, 30 min): 100%
Emax (D2LR [3]; read-out: Emax cAMP, 45 min): 100%
Emax (D2LR [3]; read-out: Emax cAMP, 60 min): 100%
Emax (D2LR [3]; read-out: Emax cAMP, 75 min): 100%
Emax (D2LR [3]; read-out: Emax cAMP, 90 min): 100%
Inhibition of cAMP production measured using a CAMYEL BRET biosensor, Net BRET (D2LR [3]; time 2.21667 mins): 0.139 and 0.1472 and 0.1432
Inhibition of cAMP production measured using a CAMYEL BRET biosensor, Net BRET (D2LR [3]; time 2.58333 mins): 0.1633 and 0.1578 and 0.1547
Inhibition of cAMP production measured using a CAMYEL BRET biosensor, Net BRET (D2LR [3]; time 2.95 mins): 0.1708 and 0.1681 and 0.157
Inhibition of cAMP production measured using a CAMYEL BRET biosensor, Net BRET (D2LR [3]; time 3.31667 mins): 0.1659 and 0.1812 and 0.1714
Inhibition of cAMP production measured using a CAMYEL BRET biosensor, Net BRET (D2LR [3]; time 3.68333 mins): 0.1811 and 0.1789 and 0.1805
Inhibition of cAMP production measured using a CAMYEL BRET biosensor, Net BRET (D2LR [3]; time 4.05 mins): 0.191 and 0.1937 and 0.1853
Inhibition of cAMP production measured using a CAMYEL BRET biosensor, Net BRET (D2LR [3]; time 4.41667 mins): 0.1979 and 0.1996 and 0.185
Inhibition of cAMP production measured using a CAMYEL BRET biosensor, Net BRET (D2LR [3]; time 4.78333 mins): 0.2031 and 0.2011 and 0.1899
Inhibition of cAMP production measured using a CAMYEL BRET biosensor, Net BRET (D2LR [3]; time 5.15 mins): 0.2133 and 0.1934 and 0.1923
Inhibition of cAMP production measured using a CAMYEL BRET biosensor, Net BRET (D2LR [3]; time 5.51667 mins): 0.202 and 0.1988 and 0.1873
Inhibition of cAMP production measured using a CAMYEL BRET biosensor, Net BRET (D2LR [3]; time 5.88333 mins): 0.214 and 0.1997 and 0.2002
Inhibition of cAMP production measured using a CAMYEL BRET biosensor, Net BRET (D2LR [3]; time 6.25 mins): 0.2138 and 0.204 and 0.1926
Inhibition of cAMP production measured using a CAMYEL BRET biosensor, Net BRET (D2LR [3]; time 6.61667 mins): 0.2113 and 0.1972 and 0.1923
Inhibition of cAMP production measured using a CAMYEL BRET biosensor, Net BRET (D2LR [3]; time 6.98333 mins): 0.2032 and 0.2012 and 0.1937
Inhibition of cAMP production measured using a CAMYEL BRET biosensor, Net BRET (D2LR [3]; time 7.35 mins): 0.2141 and 0.1963 and 0.1945
Inhibition of cAMP production measured using a CAMYEL BRET biosensor, Net BRET (D2LR [3]; time 7.71667 mins): 0.2104 and 0.2011 and 0.1956
Inhibition of cAMP production measured using a CAMYEL BRET biosensor, Net BRET (D2LR [3]; time 8.08333 mins): 0.2099 and 0.2149 and 0.1931
Inhibition of cAMP production measured using a CAMYEL BRET biosensor, Net BRET (D2LR [3]; time 8.45 mins): 0.2126 and 0.2072 and 0.1885
Inhibition of cAMP production measured using a CAMYEL BRET biosensor, Net BRET (D2LR [3]; time 8.81667 mins): 0.2189 and 0.2083 and 0.199
Inhibition of cAMP production measured using a CAMYEL BRET biosensor, Net BRET (D2LR [3]; time 9.18333 mins): 0.2207 and 0.2105 and 0.1943
Inhibition of cAMP production measured using a CAMYEL BRET biosensor, Net BRET (D2LR [3]; time 9.55 mins): 0.212 and 0.2054 and 0.2079
Inhibition of cAMP production measured using a CAMYEL BRET biosensor, Net BRET (D2LR [3]; time 9.91667 mins): 0.2149 and 0.2049 and 0.2075
Inhibition of cAMP production measured using a CAMYEL BRET biosensor, Net BRET (D2LR [3]; time 10.2833 mins): 0.2152 and 0.2111 and 0.2029
Inhibition of cAMP production measured using a CAMYEL BRET biosensor, Net BRET (D2LR [3]; time 10.65 mins): 0.2279 and 0.2163 and 0.2038
Inhibition of cAMP production measured using a CAMYEL BRET biosensor, Net BRET (D2LR [3]; time 11.0167 mins): 0.2157 and 0.2032 and 0.2052
Inhibition of cAMP production measured using a CAMYEL BRET biosensor, Net BRET (D2LR [3]; time 11.3833 mins): 0.2205 and 0.2041 and 0.2034
Inhibition of cAMP production measured using a CAMYEL BRET biosensor, Net BRET (D2LR [3]; time 11.75 mins): 0.2254 and 0.2085 and 0.1983
Inhibition of cAMP production measured using a CAMYEL BRET biosensor, Net BRET (D2LR [3]; time 12.1167 mins): 0.2217 and 0.2066 and 0.2006
Inhibition of cAMP production measured using a CAMYEL BRET biosensor, Net BRET (D2LR [3]; time 12.4833 mins): 0.2324 and 0.2048 and 0.2074
Inhibition of cAMP production measured using a CAMYEL BRET biosensor, Net BRET (D2LR [3]; time 12.85 mins): 0.2281 and 0.2112 and 0.2008
Inhibition of cAMP production measured using a CAMYEL BRET biosensor, Net BRET (D2LR [3]; time 13.2167 mins): 0.2271 and 0.2125 and 0.2083
Inhibition of cAMP production measured using a CAMYEL BRET biosensor, Net BRET (D2LR [3]; time 13.5833 mins): 0.2211 and 0.208 and 0.2059
Inhibition of cAMP production measured using a CAMYEL BRET biosensor, Net BRET (D2LR [3]; time 13.95 mins): 0.2209 and 0.2042 and 0.208
Inhibition of cAMP production measured using a CAMYEL BRET biosensor, Net BRET (D2LR [3]; time 14.3167 mins): 0.2319
